Data published in ChEMBL document CHEMBL1201862, “PubChem BioAssay data set” (2004).
Active and inactive are the calls of the source.

Legend:
[1] = inhibitors of firefly luciferase expression or activity, dose response, H4 neuroglioma cells, luminescence (AID 1990); format: functional, cell-based
[2] = inhibitors of SNCA 5'UTR-driven reporter translation, confirmation, H4 neuroglioma cells, luminescence (AID 1988); format: functional, cell-based
[3] = Luminescence Cell-Based Dose Confirmation HTS to Identify Inhibitors of Polyadenylation.; format: functional
[4] = biological target: T1, Streptokinase A (Streptococcus pyogenes serotype M1, UniProt P10520); assay: S. pyogenes streptokinase expression inhibitors, potency, dose response, plasminogen activation absorbance, OD405 (AID 1914); format: functional, Streptococcus pyogenes M1 GAS;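 also: secreted streptokinase activity via plasminogen activation per viability signal from cell pellet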
T1 sequence (P10520 whole entry): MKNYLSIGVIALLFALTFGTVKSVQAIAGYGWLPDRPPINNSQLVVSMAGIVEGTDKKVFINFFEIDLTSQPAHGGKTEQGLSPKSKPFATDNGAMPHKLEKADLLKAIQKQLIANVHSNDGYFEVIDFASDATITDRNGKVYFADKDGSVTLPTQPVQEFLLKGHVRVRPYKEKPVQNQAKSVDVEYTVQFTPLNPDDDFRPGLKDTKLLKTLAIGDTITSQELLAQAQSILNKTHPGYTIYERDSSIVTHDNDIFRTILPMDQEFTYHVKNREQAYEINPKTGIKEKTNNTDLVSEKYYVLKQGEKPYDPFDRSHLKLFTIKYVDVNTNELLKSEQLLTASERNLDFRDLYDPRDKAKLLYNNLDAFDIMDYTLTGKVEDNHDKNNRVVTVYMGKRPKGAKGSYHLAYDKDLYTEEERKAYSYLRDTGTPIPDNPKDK

[5] = test system: Streptococcus; assay: Group A Streptococcus viability loss, dose response, counter-screen for streptokinase expression inhibitor project, luminescence, BacTiterGlo (AID 1915); format: functional, organism-based;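 also: potency for reduction of bacterial viability or growth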
[6] = Luminescence Cell-Based Dose Response HTS to Identify Inhibitors of 5'UTR Stem-Loop Driven Prion Protein mRNA Translation in H4 Neuroglioblastoma Cells. [Related pubchem assays: 1827 (Project Summary), 1813 (Primary HTS)]; format: functional
[7] = test system: Streptococcus sp. 'group A'; assay: growth inhibition of control SK(-) GAS strain, dose response, counter-screen for streptokinase expression inhibitor project, luminescence, kanamycin, BacTiterGlo, confirmation (AID 1900); format: functional, organism-based
[8] = test system: Vero; assay: cells; format: functional; settings: Chlorocebus sabaeus
[9] = biological target: Peroxisome proliferator-activated receptor gamma/Nuclear receptor corepressor 2 (Homo sapiens, UniProt P37231+Q9Y618); assay: Counterscreen for NR2E3 inverse agonists: TR-FRET-based biochemical high throughput dose response assay to identify inverse agonists of the interaction between peroxisome proliferator-activated receptor gamma (PPARg) and nuclear receptor co-repressor 2 (NCOR2).; format: functional
Sequence of Peroxisome proliferator-activated receptor gamma/Nuclear receptor corepressor 2 (P37231 whole entry): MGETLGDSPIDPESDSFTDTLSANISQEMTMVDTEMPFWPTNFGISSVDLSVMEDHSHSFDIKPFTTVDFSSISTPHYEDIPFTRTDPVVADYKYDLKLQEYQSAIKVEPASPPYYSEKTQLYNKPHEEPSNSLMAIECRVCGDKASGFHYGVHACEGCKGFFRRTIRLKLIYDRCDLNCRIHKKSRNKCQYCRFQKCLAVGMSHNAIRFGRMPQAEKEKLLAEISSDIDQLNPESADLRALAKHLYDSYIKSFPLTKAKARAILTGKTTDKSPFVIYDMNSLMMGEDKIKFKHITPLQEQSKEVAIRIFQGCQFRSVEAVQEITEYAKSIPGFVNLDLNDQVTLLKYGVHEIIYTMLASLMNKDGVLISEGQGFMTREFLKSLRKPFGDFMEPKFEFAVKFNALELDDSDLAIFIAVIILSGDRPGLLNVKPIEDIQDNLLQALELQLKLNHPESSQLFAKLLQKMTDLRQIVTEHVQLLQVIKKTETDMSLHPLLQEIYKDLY
Sequence of Peroxisome proliferator-activated receptor gamma/Nuclear receptor corepressor 2 (Q9Y618 whole entry): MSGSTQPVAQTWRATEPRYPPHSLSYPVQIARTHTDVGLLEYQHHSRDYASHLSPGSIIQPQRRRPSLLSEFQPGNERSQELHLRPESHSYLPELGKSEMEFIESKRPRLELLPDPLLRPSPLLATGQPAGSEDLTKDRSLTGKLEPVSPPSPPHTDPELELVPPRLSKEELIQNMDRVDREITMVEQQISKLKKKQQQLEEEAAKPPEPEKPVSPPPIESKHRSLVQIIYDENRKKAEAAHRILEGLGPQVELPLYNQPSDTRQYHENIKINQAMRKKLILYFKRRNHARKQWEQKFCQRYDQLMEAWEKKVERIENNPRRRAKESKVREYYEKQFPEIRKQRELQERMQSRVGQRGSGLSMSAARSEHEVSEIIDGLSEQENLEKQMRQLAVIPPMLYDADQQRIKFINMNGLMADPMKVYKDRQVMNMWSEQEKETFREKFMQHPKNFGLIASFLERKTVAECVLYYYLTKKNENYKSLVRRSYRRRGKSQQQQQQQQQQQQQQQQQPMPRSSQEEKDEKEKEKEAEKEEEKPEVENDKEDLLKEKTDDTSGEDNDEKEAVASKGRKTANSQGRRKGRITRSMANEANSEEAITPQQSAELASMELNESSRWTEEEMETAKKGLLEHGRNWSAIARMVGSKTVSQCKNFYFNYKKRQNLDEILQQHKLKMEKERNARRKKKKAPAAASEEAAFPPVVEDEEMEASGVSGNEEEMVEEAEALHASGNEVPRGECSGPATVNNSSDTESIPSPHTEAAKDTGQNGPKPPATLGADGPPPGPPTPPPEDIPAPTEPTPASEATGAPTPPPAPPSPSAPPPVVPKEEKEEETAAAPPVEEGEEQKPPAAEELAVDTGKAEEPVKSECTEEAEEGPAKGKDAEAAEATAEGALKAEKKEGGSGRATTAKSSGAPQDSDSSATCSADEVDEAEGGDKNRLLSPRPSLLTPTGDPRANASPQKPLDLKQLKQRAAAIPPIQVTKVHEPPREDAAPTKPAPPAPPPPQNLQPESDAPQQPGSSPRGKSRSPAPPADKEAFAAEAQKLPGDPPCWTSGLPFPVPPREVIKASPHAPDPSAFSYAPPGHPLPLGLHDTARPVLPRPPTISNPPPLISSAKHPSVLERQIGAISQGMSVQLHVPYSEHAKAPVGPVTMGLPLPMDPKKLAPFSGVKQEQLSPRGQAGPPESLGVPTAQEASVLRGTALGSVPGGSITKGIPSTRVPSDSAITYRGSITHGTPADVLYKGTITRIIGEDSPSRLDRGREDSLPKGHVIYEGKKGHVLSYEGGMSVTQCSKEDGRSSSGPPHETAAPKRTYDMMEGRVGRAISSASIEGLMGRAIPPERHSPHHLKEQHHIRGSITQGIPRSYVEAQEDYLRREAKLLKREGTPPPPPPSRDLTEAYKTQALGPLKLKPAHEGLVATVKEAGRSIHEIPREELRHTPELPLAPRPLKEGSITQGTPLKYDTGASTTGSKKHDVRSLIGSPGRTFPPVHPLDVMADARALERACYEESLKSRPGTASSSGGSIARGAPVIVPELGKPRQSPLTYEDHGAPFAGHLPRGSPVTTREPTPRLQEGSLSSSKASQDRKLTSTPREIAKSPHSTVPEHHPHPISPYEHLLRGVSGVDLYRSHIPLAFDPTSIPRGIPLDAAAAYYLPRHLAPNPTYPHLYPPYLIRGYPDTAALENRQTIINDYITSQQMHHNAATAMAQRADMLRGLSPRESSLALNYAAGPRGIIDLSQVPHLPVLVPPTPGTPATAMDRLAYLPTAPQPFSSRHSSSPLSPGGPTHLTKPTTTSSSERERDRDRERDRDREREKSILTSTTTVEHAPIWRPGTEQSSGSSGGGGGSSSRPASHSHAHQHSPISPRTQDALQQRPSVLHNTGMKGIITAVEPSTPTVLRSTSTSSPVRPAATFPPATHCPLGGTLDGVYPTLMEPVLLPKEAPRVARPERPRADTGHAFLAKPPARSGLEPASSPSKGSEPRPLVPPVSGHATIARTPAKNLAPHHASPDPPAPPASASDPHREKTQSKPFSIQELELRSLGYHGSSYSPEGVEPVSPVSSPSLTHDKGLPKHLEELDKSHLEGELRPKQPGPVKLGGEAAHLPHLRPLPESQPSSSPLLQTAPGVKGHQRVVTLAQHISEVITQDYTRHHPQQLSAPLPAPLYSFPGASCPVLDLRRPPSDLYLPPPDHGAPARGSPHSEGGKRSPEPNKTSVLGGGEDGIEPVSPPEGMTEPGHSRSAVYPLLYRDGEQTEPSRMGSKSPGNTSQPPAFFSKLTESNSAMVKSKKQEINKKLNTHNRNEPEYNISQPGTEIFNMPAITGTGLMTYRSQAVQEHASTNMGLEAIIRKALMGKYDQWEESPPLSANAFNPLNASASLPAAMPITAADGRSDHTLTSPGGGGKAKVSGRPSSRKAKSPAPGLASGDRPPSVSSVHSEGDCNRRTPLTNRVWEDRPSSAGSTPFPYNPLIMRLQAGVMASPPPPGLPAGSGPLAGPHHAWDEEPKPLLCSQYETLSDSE

[10] = biological target: Photoreceptor-specific nuclear receptor (Homo sapiens, UniProt Q9Y5X4); assay: NR2E3 inverse agonists, dose response, biochemical, TR-FRET (AID 463256); format: functional
Sequence of Photoreceptor-specific nuclear receptor (Q9Y5X4 whole entry): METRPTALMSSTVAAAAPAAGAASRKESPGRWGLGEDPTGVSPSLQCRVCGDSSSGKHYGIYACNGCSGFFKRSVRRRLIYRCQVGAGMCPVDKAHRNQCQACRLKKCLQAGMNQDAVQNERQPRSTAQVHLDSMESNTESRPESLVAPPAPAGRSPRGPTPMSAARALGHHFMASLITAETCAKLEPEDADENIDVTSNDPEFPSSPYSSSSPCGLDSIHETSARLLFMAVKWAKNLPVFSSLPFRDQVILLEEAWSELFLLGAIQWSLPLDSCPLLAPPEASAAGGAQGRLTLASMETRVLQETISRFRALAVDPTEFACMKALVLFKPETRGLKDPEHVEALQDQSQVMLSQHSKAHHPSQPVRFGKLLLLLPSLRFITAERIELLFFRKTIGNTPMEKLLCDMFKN

[11] = biological target: T2, Bcl-2-related protein A1 (Mus musculus, UniProt Q07440); assay: Bfl-1 binding inhibitors, SAR follow-up, biochemical, fluorescence polarization (AID 1070)
T2 sequence (Q07440 whole entry): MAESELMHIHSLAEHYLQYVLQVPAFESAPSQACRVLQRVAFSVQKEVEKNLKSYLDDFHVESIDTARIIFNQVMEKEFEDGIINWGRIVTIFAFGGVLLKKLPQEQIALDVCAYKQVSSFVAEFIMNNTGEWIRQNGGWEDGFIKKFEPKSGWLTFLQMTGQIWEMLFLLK

[12] = biological target: Glyceraldehyde-3-phosphate dehydrogenase (Homo sapiens, UniProt P04406)
Sequence of Glyceraldehyde-3-phosphate dehydrogenase (P04406 whole entry): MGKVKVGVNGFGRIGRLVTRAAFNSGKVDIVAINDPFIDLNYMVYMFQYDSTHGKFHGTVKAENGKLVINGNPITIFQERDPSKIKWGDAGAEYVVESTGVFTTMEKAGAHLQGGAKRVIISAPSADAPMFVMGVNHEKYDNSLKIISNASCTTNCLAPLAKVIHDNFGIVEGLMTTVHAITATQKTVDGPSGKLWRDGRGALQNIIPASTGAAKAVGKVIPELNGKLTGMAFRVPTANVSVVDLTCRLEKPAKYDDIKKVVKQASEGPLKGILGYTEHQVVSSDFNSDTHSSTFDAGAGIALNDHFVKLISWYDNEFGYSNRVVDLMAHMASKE

[13] = biological target: T2, Bcl-2-related protein A1; assay: Bfl-1 inhibitors blocking BH3 peptide binding, confirmation, biochemical, TR-FRET, mouse Bfl-1 (AID 621);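 also: TR-FRET binding of GST-Bfl-1 to FITC-labelled Bid peptide via terbium antibody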
[14] = inhibitors of Bluetongue virus cytopathic effect, confirmation, arbovirus, BSR cells (AID 1250); format: functional;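 also: protection from viral cytopathic effect measured as cell viability by ATP luminescence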
[15] = biological target: T3, Mucolipin-3 (Homo sapiens, UniProt Q8TDD5); assay: Dose response cell-based high-throughput screening assay for agonists of the transient receptor potential channel ML3 (TRPML3). [Related pubchem assays: 1526, 1424, 1448 ]; format: functional
T3 sequence (Q8TDD5 whole entry): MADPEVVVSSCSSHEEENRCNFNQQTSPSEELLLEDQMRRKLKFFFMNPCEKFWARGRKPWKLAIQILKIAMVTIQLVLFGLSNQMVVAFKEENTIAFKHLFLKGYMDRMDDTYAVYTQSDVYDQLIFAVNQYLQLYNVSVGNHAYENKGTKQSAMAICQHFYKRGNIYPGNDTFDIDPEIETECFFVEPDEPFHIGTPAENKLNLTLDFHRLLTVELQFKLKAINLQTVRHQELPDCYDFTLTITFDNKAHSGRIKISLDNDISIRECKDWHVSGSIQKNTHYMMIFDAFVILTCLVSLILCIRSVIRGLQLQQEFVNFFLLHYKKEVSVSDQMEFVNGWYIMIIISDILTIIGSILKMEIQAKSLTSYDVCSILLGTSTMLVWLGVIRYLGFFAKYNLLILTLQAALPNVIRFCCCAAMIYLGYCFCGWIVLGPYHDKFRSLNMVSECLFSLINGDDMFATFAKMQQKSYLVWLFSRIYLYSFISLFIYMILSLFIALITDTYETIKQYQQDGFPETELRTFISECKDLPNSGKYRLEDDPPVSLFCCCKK

[16] = biological target: Ion channel NompC (Danio rerio, UniProt Q7T1G6); assay: Fluorescence counterscreen assay for TRPML3 agonists: dose response cell-based high-throughput screening assay to identify agonists of the transient receptor potential channel N1 (TRPN1). [Related pubchem assays: 1526, 1424, 1448 ]; format: functional
[17] = Luminescent dose response cell-based high throughput screening assay for inhibitors of the Janus kinase 2 mutant JAK2V617F. [Related pubchem assays: 1446 (Primary screen.), 1521 (Confirmation assay.), 1486 (Counter screen.)]; format: functional
[18] = Luminescence Cell-Based Dose Response HTS to Identify Activators of Luciferase Translation or Activity in H4 […] Cells. [Related pubchem assays: 1829 (Project Summary), 1814 (Primary HTS)]; format: functional
[19] = test system: H4; assay: Luminescence Cell-Based Dose Response HTS to Identify Activators of 5'UTR Stem-Loop Driven Prion Protein mRNA Translation in H4 Neuroglioblastoma Cells. [Related pubchem assays: 1829 (Project Summary), 1814 (Primary HTS)]; format: functional; settings: Homo sapiens
[20] = Luminescence Cell-Based Dose Confirmation HTS to Identify Activators of 5'UTR Stem-Loop Driven Alpha-Synuclein mRNA Translation in H4 Neuroglioblastoma Cells. [Related pubchem assays: 1829 (Project Summary), 1814 (Primary HTS)]; format: functional
[21] = biological target: T4, Leucine aminopeptidase (Plasmodium falciparum 3D7, UniProt Q8IL11); assay: P. falciparum M17LAP inhibitors, primary screen, biochemical, fluorogenic H-Leu-NHMec substrate, 1536-well (AID 1619); format: functional
T4 sequence (Q8IL11 whole entry): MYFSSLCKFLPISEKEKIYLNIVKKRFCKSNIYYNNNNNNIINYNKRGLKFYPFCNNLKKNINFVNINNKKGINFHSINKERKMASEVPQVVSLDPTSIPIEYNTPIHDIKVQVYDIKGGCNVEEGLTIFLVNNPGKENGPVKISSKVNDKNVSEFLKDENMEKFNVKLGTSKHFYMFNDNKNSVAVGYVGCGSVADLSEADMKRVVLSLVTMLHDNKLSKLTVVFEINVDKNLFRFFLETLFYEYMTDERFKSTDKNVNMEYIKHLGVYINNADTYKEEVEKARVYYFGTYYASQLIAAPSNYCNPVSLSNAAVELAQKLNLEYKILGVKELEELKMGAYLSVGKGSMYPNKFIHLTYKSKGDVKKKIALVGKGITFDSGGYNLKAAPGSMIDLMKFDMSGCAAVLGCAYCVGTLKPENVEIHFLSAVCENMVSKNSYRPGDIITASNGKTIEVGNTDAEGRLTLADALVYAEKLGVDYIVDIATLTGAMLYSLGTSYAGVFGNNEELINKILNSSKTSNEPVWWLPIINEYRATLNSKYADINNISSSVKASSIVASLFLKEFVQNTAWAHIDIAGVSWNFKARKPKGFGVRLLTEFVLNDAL

[22] = biological target: Protein-tyrosine kinase 2-beta (Homo sapiens, UniProt Q14289);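 also: potency of inhibitors of PYK2 kinase phosphorylation of poly-GT substrate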
Sequence of Protein-tyrosine kinase 2-beta (Q14289 whole entry): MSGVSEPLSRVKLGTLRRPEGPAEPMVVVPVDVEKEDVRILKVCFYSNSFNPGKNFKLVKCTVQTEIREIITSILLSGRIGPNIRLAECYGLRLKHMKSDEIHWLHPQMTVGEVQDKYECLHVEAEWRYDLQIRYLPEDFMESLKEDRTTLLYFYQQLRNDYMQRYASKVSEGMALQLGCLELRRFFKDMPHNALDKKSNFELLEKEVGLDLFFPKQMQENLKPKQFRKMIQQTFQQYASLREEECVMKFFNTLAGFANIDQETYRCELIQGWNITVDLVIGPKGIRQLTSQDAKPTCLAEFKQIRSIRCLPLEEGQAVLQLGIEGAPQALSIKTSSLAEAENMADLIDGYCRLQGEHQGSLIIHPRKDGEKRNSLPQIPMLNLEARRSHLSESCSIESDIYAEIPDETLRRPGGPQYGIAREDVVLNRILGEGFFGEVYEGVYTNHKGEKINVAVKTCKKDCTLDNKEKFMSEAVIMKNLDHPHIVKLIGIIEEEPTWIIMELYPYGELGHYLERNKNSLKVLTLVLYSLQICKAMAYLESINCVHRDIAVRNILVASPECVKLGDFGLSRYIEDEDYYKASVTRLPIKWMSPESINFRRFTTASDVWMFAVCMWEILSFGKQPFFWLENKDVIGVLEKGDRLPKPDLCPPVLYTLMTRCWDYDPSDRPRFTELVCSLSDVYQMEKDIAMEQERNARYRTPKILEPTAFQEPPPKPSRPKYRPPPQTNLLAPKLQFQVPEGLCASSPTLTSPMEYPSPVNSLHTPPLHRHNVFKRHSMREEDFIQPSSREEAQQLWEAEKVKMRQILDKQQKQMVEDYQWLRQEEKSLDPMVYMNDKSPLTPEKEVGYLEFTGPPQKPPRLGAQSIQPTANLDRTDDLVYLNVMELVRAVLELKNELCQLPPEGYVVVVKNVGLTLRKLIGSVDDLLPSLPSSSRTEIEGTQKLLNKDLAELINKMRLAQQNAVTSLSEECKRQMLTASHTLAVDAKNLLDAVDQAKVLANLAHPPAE

[23] = biological target: T5, Zinc finger protein mex-5 (Caenorhabditis elegans, UniProt Q9XUB2); assay: MEX-5/TCR-2 RNA interaction inhibitors, dose response, biochemical, C. elegans, fluorescence polarization (AID 1960)
T5 sequence (Q9XUB2 whole entry): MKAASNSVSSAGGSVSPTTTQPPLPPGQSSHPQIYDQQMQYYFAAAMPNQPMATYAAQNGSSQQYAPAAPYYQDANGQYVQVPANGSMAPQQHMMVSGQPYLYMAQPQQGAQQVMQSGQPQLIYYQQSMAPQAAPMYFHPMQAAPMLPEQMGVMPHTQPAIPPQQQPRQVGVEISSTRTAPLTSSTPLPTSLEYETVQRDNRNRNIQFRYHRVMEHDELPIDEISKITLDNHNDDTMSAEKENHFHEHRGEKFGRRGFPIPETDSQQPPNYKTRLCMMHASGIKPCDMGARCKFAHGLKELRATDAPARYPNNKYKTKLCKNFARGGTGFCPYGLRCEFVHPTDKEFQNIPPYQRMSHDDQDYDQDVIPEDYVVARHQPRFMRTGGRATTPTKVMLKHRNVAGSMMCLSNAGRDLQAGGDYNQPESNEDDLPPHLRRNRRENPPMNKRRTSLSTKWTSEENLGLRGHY

[24] = biological target: Large T antigen (Simian virus 40, UniProt P03070); format: functional, Betapolyomavirus macacae;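 also: Confirmatory-stage PubChem screen for compounds that inhibit SV40 T antigen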
[25] = biological target: T6, RNA-binding protein pos-1 (Caenorhabditis elegans, UniProt G5EF15); assay: inhibitors of POS-1/mex-3 RNA binding, dose response, biochemical, fluorescence polarization (AID 1964);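 also: purified POS-1 fused to maltose binding protein made in E. coli; potency of compounds blocking POS-1 binding to fluorescent RNA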
T6 sequence (G5EF15 whole entry): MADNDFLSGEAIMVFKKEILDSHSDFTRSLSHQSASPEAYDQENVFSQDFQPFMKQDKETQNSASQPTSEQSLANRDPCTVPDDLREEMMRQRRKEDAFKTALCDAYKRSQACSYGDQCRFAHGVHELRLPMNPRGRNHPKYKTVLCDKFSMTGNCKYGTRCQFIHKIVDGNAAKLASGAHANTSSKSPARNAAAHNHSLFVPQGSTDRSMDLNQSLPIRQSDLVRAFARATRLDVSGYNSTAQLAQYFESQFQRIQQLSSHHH

[26] = biological target: T7, NADPH oxidase 1 (Homo sapiens, UniProt Q9Y5S8); format: functional, cell-based;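 also: Cell-based assay with luminescence read-out, IC50 derived from inhibitor dose-response curves; intracellular ROS from endogenous NOX1 in intact HT29 colon cancer cells; potency of inhibitors that lower the ROS luminescence signal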
T7 sequence (Q9Y5S8 whole entry): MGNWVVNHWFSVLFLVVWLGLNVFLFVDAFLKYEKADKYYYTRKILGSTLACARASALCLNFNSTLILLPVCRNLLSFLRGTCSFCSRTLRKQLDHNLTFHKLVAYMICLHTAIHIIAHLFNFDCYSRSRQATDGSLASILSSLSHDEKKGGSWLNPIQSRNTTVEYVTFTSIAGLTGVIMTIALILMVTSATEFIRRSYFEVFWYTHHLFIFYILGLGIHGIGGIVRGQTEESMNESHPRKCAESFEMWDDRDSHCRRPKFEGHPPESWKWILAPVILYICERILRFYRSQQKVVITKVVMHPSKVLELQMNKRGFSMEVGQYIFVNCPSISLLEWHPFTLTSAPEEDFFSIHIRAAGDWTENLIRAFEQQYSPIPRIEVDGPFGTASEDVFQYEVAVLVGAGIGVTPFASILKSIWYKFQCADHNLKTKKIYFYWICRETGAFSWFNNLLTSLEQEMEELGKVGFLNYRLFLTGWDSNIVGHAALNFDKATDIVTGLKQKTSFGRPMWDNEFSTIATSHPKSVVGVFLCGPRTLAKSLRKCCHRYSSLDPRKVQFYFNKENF

Cc1c(C(=O)Nc2nonc2-c2ccc(F)cc2)oc2ccc(F)cc12
EC50 [1]: > 120 µM (not active)
EC50 [2]: > 120 µM (not active)
EC50 [3]: > 120 µM (not active)
EC50 [4]: 27.7 µM (active)
EC50 [5]: > 150 µM (not active)
EC50 [6]: 12.9 µM (active)
EC50 [7]: 3.52 µM (active)
CC50 [8]: 6.89 µM (active)

COc1ccc2[nH]c(C(=O)Nc3ccc(F)cc3Br)cc2c1
IC50 [9]: > 39.9 µM (not active)
IC50 [10]: > 39.9 µM (not active)

O=C1C(Cl)=C(Cl)C(=O)N1c1ccnc(Cl)c1
IC50 [11]: > 100 µM (not active)
IC50 [12]: > 100 µM (not active)
IC50 [13]: 39.9 µM (active)

COc1ccc2oc3cc(C)[n+]([O-])c(-c4ccc(Cl)cc4)c3c2c1
IC50 [14]: > 100 µM (active)

COc1ccc2no[n+]([O-])c2c1
EC50 [3]: > 120 µM (not active)

Cc1cc2c(s1)c1cnn(CC(=O)NCCc3ccccc3)c(=O)c1n2C
IC50 [9]: 2.65 µM (active)
IC50 [10]: 2.52 µM (active)

Cc1ccc(S(=O)(=O)N2CCC(=O)N(C(COCc3ccc(C(F)(F)F)cc3)C(C)C)CC2)cc1 (configuration not stated)
EC50 [15]: 3.92 µM (active)
EC50 [16]: > 29.9 µM (not active)

Cc1nc(O)c(C(=O)/C=C/c2ccccc2F)c2c1CCCC2
IC50 [17]: 1.52 µM (active)
EC50 [18]: > 120 µM (not active)
EC50 [19]: > 120 µM (not active)
EC50 [20]: 9.92 µM (active)

O=C(/C=C/c1ccco1)Nc1cc(Cl)ccc1C(=O)O
IC50 [14]: 36.7 µM (active)
IC50 [21]: 74.4 µM (active)

O=C(N/N=C1/C(=O)c2cccc3cccc1c23)c1ccc(Cl)cc1
IC50 [22]: 4.31 µM (active)

Oc1ccc2ccccc2c1/C=N/c1ccc(N2CCOCC2)cc1
IC50 [22]: 10.6 µM (not active)
EC50 [23]: > 300 µM (not active)
IC50 [24]: 36 µM (active)
EC50 [25]: > 300 µM (not active)

c1ccc(-c2nc(-c3ccccc3)c(-c3ccccc3)[nH]2)cc1
IC50 [26]: > 17 µM (not active)

COc1ccc2c(c1)Nc1ccccc1S2
IC50 [26]: 0.913 µM (active)
